Experimental data: patent publication US9340493B2, “Hydroxamic acid derivatives useful as antibacterial agents” (Pfizer Inc., priority 2008, dated 2016)
In brackets after ≈: the same amount, converted by molar mass.

Columns and labels:
Klebsiella pneumoniae = test: MIC determination, K. pneumoniae; format: cell-based; details: ciprofloxacin-resistant, ESBL-expressing clinical isolate, * = arithmetic mean of 2-6 MIC determinations, read-out: MIC (ug/mL) K. pneumoniae
How it was run: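 MIC determined by broth dilution per CLSI M7-A7 and M100-S18 guidelines. Strain: ciprofloxacin-resistant, ESBL-expressing clinical isolate of K. pneumoniae.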

[1] = test system: Acinetobacter baumanii/haemolyticus; test: MIC determination, A. baumanii/haemolyticus; format: cell-based; details: Acinetobacter baumannii; multidrug-resistant clinical isolate; * = arithmetic mean of 2-6 MIC determinations; read-out: MIC (ug/mL) A. baumanii/haemolyticus
How it was run: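 MICs were determined by CLSI broth dilution (M7-A7, M100-S18) against a multidrug-resistant clinical isolate of Acinetobacter baumanii/haemolyticus.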

P. aeruginosa UI-18 = test: MIC determination, P. aeruginosa UI-18; format: cell-based; details: Pseudomonas aeruginosa, UI18; wild-type; * = arithmetic mean of 2-6 MIC determinations; read-out: MIC (ug/mL) P. aeruginosa UI-18
How it was run: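 MIC by broth dilution following CLSI M7-A7 and M100-S18 guidelines, tested against wild-type P. aeruginosa UI-18.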

Enterobacter aerogenes = test: MIC determination, E. aerogenes; format: cell-based; details: Klebsiella aerogenes; quinolone-resistant, ESBL-expressing clinical isolate; * = arithmetic mean of 2-6 MIC determinations; read-out: MIC (ug/mL) E. aerogenes
How it was run: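 Clinical E. aerogenes isolate, quinolone-resistant and ESBL-expressing. MIC measured in vitro by dilution testing according to CLSI guidelines (M7-A7, M100-S18).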

[2] = test system: Staphylococcus aureus ATCC 29213; test: MIC determination, S. aureus ATCC 29213; format: cell-based; details: ATCC29213, CLSI quality control reference strain, * = arithmetic mean of 2-6 MIC determinations, read-out: MIC (ug/mL) S. aureus ATCC 29213
How it was run: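 MIC was measured by dilution susceptibility testing following CLSI guidelines (M7-A7; M100-S18). The test organism is the CLSI quality-control reference strain.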

P. aeruginosa PAO280 = test: MIC determination, P. aeruginosa PAO280; format: cell-based; details: Pseudomonas aeruginosa, PAO280, read-out: MIC (ug/mL) P. aeruginosa PAO280
How it was run: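 Broth dilution MIC per CLSI M7-A7/M100-S18 guidelines. Strain PAO280 lacks efflux pumps MexAB-oprM, MexXY and MexZ.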

Escherichia coli EC-1 = test: MIC determination, E. coli EC-1; format: cell-based; details: EC1, EC-1: VOGEL, * = arithmetic mean of 2-6 MIC determinations, read-out: MIC (ug/mL) E. coli EC-1
How it was run: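 Minimum inhibitory concentration against Escherichia coli EC-1 was determined in vitro by dilution susceptibility testing under CLSI M7-A7 and M100-S18 guidelines.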

[3] = biological target: T1, Pseudomonas aeruginosa LpxC enzyme (Pseudomonas aeruginosa, UniProt P47205); test: IC50 assay, LpxC enzyme from P. aeruginosa; format: biochemical; details: 0.5 nM enzyme, 25° C., pH 8.0, 20 min; ** = average of 2-8 assays
T1 construct: made in house; host or cells: E. coli
T1 sequence (P47205 1-303): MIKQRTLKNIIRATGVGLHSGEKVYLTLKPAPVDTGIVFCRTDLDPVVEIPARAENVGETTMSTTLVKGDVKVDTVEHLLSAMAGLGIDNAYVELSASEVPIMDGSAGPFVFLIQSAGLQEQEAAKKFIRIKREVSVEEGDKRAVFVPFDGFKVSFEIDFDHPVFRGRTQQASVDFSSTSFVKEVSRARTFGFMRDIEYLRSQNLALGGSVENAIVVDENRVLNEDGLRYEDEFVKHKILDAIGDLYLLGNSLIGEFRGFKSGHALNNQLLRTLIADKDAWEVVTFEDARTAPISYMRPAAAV
How it was run: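 P. aeruginosa LpxC (0.5 nM, expressed in E. coli) reacted with 0.5 uM ³H-acetyl-labelled UDP-3-O-(R-3-hydroxydecanoyl)-GlcNAc in 50 mM sodium phosphate pH 8.0 with 1 mg/ml BSA at 25 °C for 20 min. Charcoal stopped the reaction, and filtrate radioactivity was counted by scintillation after no-enzyme background subtraction.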

SMILES | MIC (Klebsiella pneumoniae) [µg/mL] | MIC [1] [µg/mL] | MIC (P. aeruginosa UI-18) [µg/mL] | MIC (Enterobacter aerogenes) [µg/mL] | MIC [2] [µg/mL] | MIC (P. aeruginosa PAO280) [µg/mL] | MIC (Escherichia coli EC-1) [µg/mL] | IC50 [3] [µM]
C[S+]([O-])c1cc([C@H](O)[C@](C)(OCc2ccc(-c3ccc(F)cc3)cc2)C(=O)NO)no1 (stereo partly drawn) [Example 44, (2S,3S)-2-[(4′-fluorobiphenyl-4-yl)methoxy]-N,3-dihydroxy-2-methyl-3-[5-(methylsulfinyl)isoxazol-3-yl]propanamide] | 32 (≈ 71.4 µM) | 32 (≈ 71.4 µM) | 1 (≈ 2.23 µM) | > 64 | > 64 | 0.015 (≈ 0.0334 µM) | 8 (≈ 17.8 µM) | 0.000283
C[C@@](OCc1ccc(-c2ccccc2)cc1)(C(=O)NO)[C@@H](O)c1ccn[nH]1 [Example 45, (2S,3S)-2-(biphenyl-4-ylmethoxy)-N,3-dihydroxy-2-methyl-3-(1H-pyrazol-3-yl)propanamide] | > 32 | > 32 | 16 (≈ 43.5 µM) | > 32 | > 32 | 0.25 (≈ 0.68 µM) | > 32 | 0.00195
C[C@@](OCc1ccc(-c2ccc(-c3cnco3)cc2)cc1)(C(=O)NO)[C@@H](O)c1ccc(CO)o1 [Example 46, (2S,3S)-N,3-dihydroxy-3-[5-(hydroxymethyl)-2-furyl]-2-methyl-2-{[4′-(1,3-oxazol-5-yl)biphenyl-4-yl]methoxy}propanamide] | > 8 | > 8 | 4 (≈ 8.61 µM) | > 8 | > 8 | 0.25 (≈ 0.538 µM) | > 8 | 0.000366
CC(OCc1ccc(-c2ccccc2)cc1)(C(=O)NO)C1(O)CCC1 (stereo not shown) [Example 48, 2-(biphenyl-4-ylmethoxy)-N-hydroxy-2-(1-hydroxycyclobutyl)propanamide] | > 64 | > 64 | 16 (≈ 46.9 µM) | > 64 | > 64 | < 0.06 | > 64 | 0.00623
CNC(=O)C(C)(OCc1ccc(-c2ccc(-c3cc(CO)no3)cc2)cc1)C(=O)NO (stereo not shown) [Example 49, N-hydroxy-2-({4′-[3-(hydroxymethyl)isoxazol-5-yl]biphenyl-4-yl}methoxy)-N′,2-dimethylmalonamide] | > 16 | > 16 | 2 (≈ 4.7 µM) | > 16 | > 16 | 0.045 (≈ 0.106 µM) | 8 (≈ 18.8 µM) | 0.00175
CCCc1ccc(-c2ccc(COC(CO)(CO)C(=O)NO)cc2)cc1 [Example 51, N,3-dihydroxy-2-(hydroxymethyl)-2-[(4′-propylbiphenyl-4-yl)methoxy]propanamide] | > 16 | > 16 | > 16 | > 16 | > 16 | 1 (≈ 2.78 µM) | > 16 | 0.00186
Cc1cc(CNC(=O)C(C)(OCc2ccc(-c3ccc(F)cc3)nc2)C(=O)NO)no1 (stereo not shown) [Example 53, 2-{[6-(4-fluorophenyl)pyridin-3-yl]methoxy}-N-hydroxy-2-methyl-N′-[(5-methylisoxazol-3-yl)methyl]malonamide] | > 64 | 64 (≈ 149 µM) | 32 (≈ 74.7 µM) | > 64 | > 64 | 0.5 (≈ 1.17 µM) | 16 (≈ 37.3 µM) | 0.0143
CC(CO)(OCc1ccc(-c2ccc(-c3cc(CN4CCOCC4)no3)cc2)cc1)C(=O)NO (stereo not shown) [Example 55, N,3-dihydroxy-2-methyl-2-({4′-[3-(morpholin-4-ylmethyl)isoxazol-5-yl]biphenyl-4-yl}methoxy)propanamide] | > 64 | > 64 | 32 (≈ 68.4 µM) | > 64 | > 64 | 0.5 (≈ 1.07 µM) | > 64 | 0.00399
